{"source": "ChEMBL document CHEMBL4834442", "about": "“Immunosuppressive 9,10-Secosteroids from the Gorgonian Verrucella umbraculum Collected in the South China Sea” (J Nat Prod, 2021)", "note": "The source made the active and inactive calls. No cut-off for these calls is given here."}
{"system": "not listed separately", "experiment": "Cytotoxicity against C57BL/6 mouse spleen mononuclear cells assessed as cell viability at 0.5 to 1 uM measured after 48 hrs by CCK-8 assay", "type": "cell-based", "conditions": "mononuclear cell line, dose 0.5-1 µM"}
{"smiles": "Cc1ccc(O)cc1CC[C@]1(O)[C@H](O)CC[C@]2(C)[C@@H]([C@H](C)/C=C/[C@@H](C)C(C)C)CC[C@H]21", "Activity": "Non-Toxic"}
{"smiles": "CC(C)=CCC[C@@H](C)[C@H]1CC[C@H]2[C@H](CCc3cc(O)ccc3C)[C@H](O)CC[C@]12C", "note": "[CALICOFEROL G]", "Activity": "Non-Toxic"}
{"smiles": "Cc1ccc(O)cc1CC[C@@H]1[C@H](O)CC[C@]2(C)[C@@H]([C@H](C)CCCC(C)C)[C@@H](O)C[C@@H]12", "note": "[CALICOFEROL B]", "Activity": "Non-Toxic"}
{"smiles": "Cc1ccc(O)cc1CC[C@]1(O)C(=O)CC[C@]2(C)[C@@H]([C@H](C)/C=C/[C@@H](C)C(C)C)C[C@@H](O)[C@H]21", "Activity": "Non-Toxic"}
{"smiles": "Cc1ccc(O)cc1CC[C@]1(O)[C@H](O)CC[C@]2(C)[C@@H]([C@H](C)CC[C@@H](C)C(C)C)CC[C@H]21", "Activity": "Non-Toxic"}
{"smiles": "Cc1ccc(O)cc1CC[C@]1(O)[C@H](O)CC[C@]2(C)[C@@H]([C@H](C)CC[C@H](C)C(C)C)CC[C@H]21", "Activity": "Non-Toxic"}
{"smiles": "Cc1ccc(O)cc1CC[C@]1(O)[C@H](O)CC[C@]2(C)[C@@H]([C@H](C)CCCC(C)C)CC[C@H]21", "Activity": "Non-Toxic"}
{"smiles": "C=C(CC[C@@H](C)[C@H]1CC[C@H]2[C@H](CCc3cc(O)ccc3C)[C@H](O)CC[C@]12C)C(C)C", "note": "[CALICOFEROL C]", "Activity": "Non-Toxic"}
{"smiles": "Cc1ccc(O)cc1CC[C@@H]1[C@H](O)CC[C@]2(C)[C@@H]([C@H](C)/C=C/CC(C)C)CC[C@@H]12", "Activity": "Non-Toxic"}
{"smiles": "Cc1ccc(O)cc1CC[C@@H]1[C@H](O)CC[C@]2(C)[C@@H]([C@H](C)CCCC(C)C)CC[C@@H]12", "note": "[ASTROGORGIADIOL]", "Activity": "Non-Toxic"}
{"smiles": "Cc1ccc(O)cc1CC[C@]1(O)[C@H](O)CC[C@]2(C)[C@@H]([C@H](C)/C=C/CC(C)C)CC[C@H]21", "Activity": "Non-Toxic"}
{"smiles": "Cc1ccc(O)cc1CC[C@]1(O)C(=O)CC[C@]2(C)[C@@H]([C@H](C)/C=C/CC(C)C)CC[C@H]21", "Activity": "Non-Toxic"}
{"smiles": "Cc1ccc(O)cc1CC[C@@H]1[C@H](O)CC[C@]2(C)[C@@H]([C@H](C)/C=C/[C@@H](C)C(C)C)CC[C@@H]12", "Activity": "Non-Toxic"}
{"smiles": "C/C=C(/CC[C@@H](C)[C@H]1CC[C@@H]2[C@]1(C)CC[C@@H](O)[C@@]2(O)CCc1cc(O)ccc1C)C(C)C", "Activity": "Non-Toxic"}
{"smiles": "Cc1ccc(O)cc1CC[C@]1(O)C(=O)CC[C@]2(C)[C@@H]([C@H](C)/C=C/[C@@H](C)C(C)C)CC[C@H]21", "Activity": "Non-Toxic"}
{"smiles": "C=C(CC[C@@H](C)[C@H]1CC[C@@H]2[C@]1(C)CC[C@@H](O)[C@@]2(O)CCc1cc(O)ccc1C)C(C)C", "Activity": "Non-Toxic"}
{"system": "CD4+ve Th", "experiment": "Immunosuppressive activity in C57BL/6 mouse SMNCs-derived CD4+ T cells assessed as inhibition of concanavalinA-stimulated cell proliferation at 1 uM measured after 5 to 7 days by CFSE staining based FACScan flowcytometry", "type": "functional", "conditions": "time 5-7 day"}
{"smiles": "Cc1ccc(O)cc1CC[C@]1(O)[C@H](O)CC[C@]2(C)[C@@H]([C@H](C)/C=C/[C@@H](C)C(C)C)CC[C@H]21", "Activity": "Active"}
{"smiles": "CC(C)=CCC[C@@H](C)[C@H]1CC[C@H]2[C@H](CCc3cc(O)ccc3C)[C@H](O)CC[C@]12C", "note": "[CALICOFEROL G]", "Activity": "Active"}
{"smiles": "Cc1ccc(O)cc1CC[C@@H]1[C@H](O)CC[C@]2(C)[C@@H]([C@H](C)CCCC(C)C)[C@@H](O)C[C@@H]12", "note": "[CALICOFEROL B]", "Activity": "Active"}
{"smiles": "Cc1ccc(O)cc1CC[C@]1(O)C(=O)CC[C@]2(C)[C@@H]([C@H](C)/C=C/[C@@H](C)C(C)C)C[C@@H](O)[C@H]21", "Activity": "inactive"}
{"smiles": "Cc1ccc(O)cc1CC[C@]1(O)[C@H](O)CC[C@]2(C)[C@@H]([C@H](C)CC[C@@H](C)C(C)C)CC[C@H]21", "Activity": "Active"}
{"smiles": "Cc1ccc(O)cc1CC[C@]1(O)[C@H](O)CC[C@]2(C)[C@@H]([C@H](C)CC[C@H](C)C(C)C)CC[C@H]21", "Activity": "Active"}
{"smiles": "Cc1ccc(O)cc1CC[C@]1(O)[C@H](O)CC[C@]2(C)[C@@H]([C@H](C)CCCC(C)C)CC[C@H]21", "Activity": "Active"}
{"smiles": "C=C(CC[C@@H](C)[C@H]1CC[C@H]2[C@H](CCc3cc(O)ccc3C)[C@H](O)CC[C@]12C)C(C)C", "note": "[CALICOFEROL C]", "Activity": "Active"}
{"smiles": "Cc1ccc(O)cc1CC[C@@H]1[C@H](O)CC[C@]2(C)[C@@H]([C@H](C)/C=C/CC(C)C)CC[C@@H]12", "Activity": "Active"}
{"smiles": "Cc1ccc(O)cc1CC[C@@H]1[C@H](O)CC[C@]2(C)[C@@H]([C@H](C)CCCC(C)C)CC[C@@H]12", "note": "[ASTROGORGIADIOL]", "Activity": "Active"}
{"smiles": "Cc1ccc(O)cc1CC[C@]1(O)[C@H](O)CC[C@]2(C)[C@@H]([C@H](C)/C=C/CC(C)C)CC[C@H]21", "Activity": "Active"}
{"smiles": "Cc1ccc(O)cc1CC[C@]1(O)C(=O)CC[C@]2(C)[C@@H]([C@H](C)/C=C/CC(C)C)CC[C@H]21", "Activity": "Active"}
{"smiles": "Cc1ccc(O)cc1CC[C@@H]1[C@H](O)CC[C@]2(C)[C@@H]([C@H](C)/C=C/[C@@H](C)C(C)C)CC[C@@H]12", "Activity": "Active"}
{"smiles": "C/C=C(/CC[C@@H](C)[C@H]1CC[C@@H]2[C@]1(C)CC[C@@H](O)[C@@]2(O)CCc1cc(O)ccc1C)C(C)C", "Activity": "inactive"}
{"smiles": "Cc1ccc(O)cc1CC[C@]1(O)C(=O)CC[C@]2(C)[C@@H]([C@H](C)/C=C/[C@@H](C)C(C)C)CC[C@H]21", "Activity": "Active"}
{"smiles": "C=C(CC[C@@H](C)[C@H]1CC[C@@H]2[C@]1(C)CC[C@@H](O)[C@@]2(O)CCc1cc(O)ccc1C)C(C)C", "Activity": "Active"}
